Data reported in patent US20230026163A1, “ANTICANCER COMPOUND AND MEDICAL USE THEREOF” (ASCENTAWITS PHARMACEUTICALS, LTD., priority 2019, published 2023).
Read-outs that look alike come from different tables or passages of the source.

Assays:
[1] = system: H460 cell line; assay: Hypoxia-dependent cytotoxicity experiment (2 hours exposure, air or N2, CTG); type: cell-based; conditions: Homo sapiens, then 3 days
Protocol: To determine the effect of the compounds of the present disclosure on cancer cell proliferation, these compounds were tested for cancer cell anti-proliferative activity in a porous CTG-based assay. Cell growth was compared in the present (treatment groups) and the absence of the test compound. 10,000 cells/well/495 μL of medium was used to test the following cell line, a human tumor cell line of H460 non-small cell lung cancer. The cells were seeded on glass-inserts located in each well of 24-well plates with a density and medium as specified above. 24 hours later, the plates were divided into 2 groups, hypoxia (using N2) group and air group. TH-302 at the concentrations from 100, 10, 0.1 to 0.01 μM, and the test compounds at the concentrations from 10, 1, 0.1, 0.01, 0.001 to 0.0001 were added to each well (500 μL volume) of the treatment groups. The final DMSO concentration in each well was lower than or equal to 1%. The cells in the hypoxia group were incubated for 2 hours in an ELECTROTEK hypoxia workstation. The cells in the air group were incubated for 2 hours in a standard culture incubator. 2 hours later, the test compounds were removed from each well. The cells were washed with 500 μL of medium and incubated in 500 μL of fresh medium for 3 days. 3 days later, 200 μL of medium per well was discarded. 60 μL of CTG was added to the wells, and the plates were placed at room temperature for 15 minutes in the dark. 100 μL of medium from each well of the 24-well plates was transferred to 96-well plates. The chemiluminescence signal values were read with an M5 full-band multi-mode-function microplate reader, and integration=750 ms. The compounds of control 1 and control 2 were used as controls.

[2] = system: H460 non-small cell lung cancer; assay: Cytotoxicity test of human tumor cell line in vitro (CTG, 72 hours); type: cell-based; conditions: Homo sapiens, NCI-H460; H460, 72 hours exposure
Protocol: IC50 values were obtained by the following methods. The cancer cells were exposed to various concentrations of compounds for 72 hours. Following by washing steps, fresh medium was added to allow the growth of the cancer cells. The cancer cells were stained to obtain cell viability. Then, comparisons were made with the medium-only control.
Specifically, the exponentially growing cells were seeded in 96-well plates at a density of 2×10^3 cells/well, and 100 μL/well. The cells were incubated for 24 hours at 37° C., in 5% CO2, in 95% air, and 100% relative humidity. Next, 99 μL of culture medium was added. The compounds were dissolved in 100% DMSO at 200 times the desired final test concentration. Upon addition of compounds, the compounds were further diluted to 4 times the desired final concentration with a complete medium. Aliquots of 1 μL of compounds at specific concentration were added to the micro-wells containing 199 μL of medium to obtain the final compound concentrations as reported. After the compounds were added, the plates were incubated for an addition 72 hours at 37° C., in 5% CO2, in 95% air, and 100% relative humidity.
The plates to be test containing the cells were equilibrated at room temperature for 30 minutes, and 100 μL of medium per well was discarded. 100 μL of CTG reagent (CelltiterGlo Kit) was added to each well. The plates were placed in a fast-shaker to shake for 2 minutes, and placed at room temperature for 30 minutes in the dark. Chemoluminescence signal values were read with Envision instrument.

[3] = Maximal tolerance dose (MTD) experiment; type: in vivo, ICR mice; conditions: for MTD at 5 days: both sexes, ICR, mouse, in vivo, iv
Protocol: 18 ICR mice, 9 females/9 males, were selected for the experiment. According to gender and body weight, the mice were randomly divided into a 10 mg/kg group, a 20 mg/kg group, and a 40 mg/kg group of the S-configuration of compound 01, with 3 females/3 males in each group. By intravenous injection, the 10 mg/kg group of the S-configuration of compound 01 was administered with 1 mg/ml of the administration concentration, 10 ml/kg of the administration volume, and 10 mg/kg of the dose. The 20 mg/kg group containing the S-configuration of compound 01 was administered with 2 mg/ml of the administration concentration, 10 ml/kg of the administration volume, and 20 mg/kg of the dose. The 40 mg/kg group containing the S-configuration of compound 01 was administered with 4 mg/ml of the administration concentration, 10 ml/kg of the administration volume, and 40 mg/kg of the dose. The mice was administered once a day for 5 consecutive days, and recovered for 2 weeks after the last administration. The mice were closely observed for 2 hours after administration of the daily drug. The mice were observed twice a day in the morning and afternoon on the non-administration day. During the experiment, body weight and food intake were measured twice a week. The dead animals and all the survival animals were subjected to gross necropsy on the 14th day after the last administration. The diseased organic were grossly necropsied for histopathological examination.
18 ICR mice, 9 females/9 males, were selected for the experiment. According to gender and body weight, the mice were randomly divided into a 10 mg/kg group, a 20 mg/kg group, and a 40 mg/kg group of the R-configuration of compound 01, with 3 females/3 males in each group. By intravenous injection, the 10 mg/kg group of the R-configuration of compound 01 was administered with 1 mg/ml of the administration concentration, 10 ml/kg of the administration volume, and 10 mg/kg of the dose. The 20 mg/kg group of the R-configuration of compound 01 was administered with 2 mg/ml of the administration concentration, 10 ml/kg of the administration volume, and 20 mg/kg of the dose. The 40 mg/kg group of the R-configuration of compound 01 was administered with 4 mg/ml of the administration concentration, 10 ml/kg of the administration volume, and 40 mg/kg of the dose. The mice was administered once a day for 5 consecutive days, and recovered for 1 week after the last administration. […] To find the maximum tolerated dose, a second cycle of dosing was required. The doses were adjusted and administered for 5 consecutive days.
The mice were closely observed for 2 hours after administration of the daily drug. The mice were observed twice a day in the morning and afternoon on the non-administration day. During the experiment, body weight and food intake were measured twice a week. The dead animals and all the survival animals were subjected to gross necropsy on the 14th day after the last administration. The diseased organic were grossly necropsied for histopathological examination.

[4] = target: T1, P-glycoprotein (Homo sapiens, UniProt P08183); assay: in vitro; conditions: MDCK-MDR1; for Papp A→B at 2 h / Papp B→A at 2 h: dog
Protocol: MDCKII-MDR1 cells were incubated in cell culture flasks. The incubator was set at 37° C., 5% CO2, and a guaranteed relative humidity of 95%. When the cells reached 70 to 90% confluence, the cells may be seeded to transwells.
50 μL of the cell suspensions were added to the apical chambers of each well of the 96-well transwells at a final seeding density of 5.45×10^5 cells/cm^2.
MDCKII-MDR1 cells may be fully confluent and differentiated after 4 to 8 days of incubation. At this time, the cells may be applied to penetration test. The monolayer membrane resistance was measured with a resistance meter (Millipore), and the resistance per well was recorded. After the test, the transwells were returned to the incubator.
The transwells with MDCKII-MDR1 cells were taken from the incubator. The cell monolayers were rinsed twice with buffer and incubated at 37° C. for 30 minutes.
The rate of the compounds from an apical end to a basolateral end was determined. 75 μL of the buffer containing the test sample was added to each well of the apical chambers (apical end), and 235 μL of the buffer was added to each well of the basolateral chambers (basolateral end).
The rate of the compounds transporting from the basolateral end to the apical end was determined. 75 μL of the buffer was added to the apical chambers (apical end), and 235 μL of the buffer containing the test sample was added to the basolateral chamber (basolateral end).
After the apical chambers and the basolateral chambers were combined respectively, the transwells were incubated at 37° C. for 2 hours.
After incubation, 50 μL of the sample from each well of the apical chambers and the basolateral chambers of the transwells was transferred to new sample tubes respectively. 200 μL of acetonitrile (100 nM of Alprazolam, 200 nM of Labetalol, 200 nM of caffeine, and 2 μM of Ketoprofen) as an internal standard was added to the sample tubes, vortexed for 10 minutes, and centrifuged at 3220 g for 30 minutes. 100 μL of the supernatant was taken and diluted with an equal volume of water for LC-MS/MS analysis. Each sample was incubated in triplicate.
Peak-areas were calculated from ion chromatography results. The apparent permeability coefficient (Papp, unit: cm/s×10-6) of the compounds was calculated by the following formula.
In the formula, VA was the volume of the solution at the acceptor end (Ap→B1 was 0.235 mL, and B1→Ap was 0.075 mL), Area was the membrane area (0.143 cm^2) of 96-well transwell, time was the incubation time (unit: s), [drug]acceptor referred to the drug concentration of the acceptor end after incubation, and [drug]initial,donor referred to the initial concentration of the donor end before incubation.
Efflux ratio was calculated with the following formula.
In the formula, Papp(B_A) was the apparent permeability coefficient from the basolateral end to the apical end, and Papp(A-B) was the apparent permeability coefficient from the apical end to the basolateral end.
The recovery rate was calculated with the following formula.
In the formula, VA was the solution volume of the acceptor end (unit: mL), VD was the solution volume of the donor end (unit: mL), [drug]acceptor referred to the drug concentration of the acceptor end after incubation, and [drug]initial,donor referred to the initial concentration of the donor end before incubation.

[5] = target: T1, P-glycoprotein; design: expressed in transfected cells; host or cells: MDCKII-MDR1 (MDCKII canine kidney cells); conditions: cited from earlier work
[6] = NCI-H460, H460, air, read-out: Normoxia: IC50
[7] = NCI-H460, H460, hypoxia (N2), read-out: N2: IC50

T1 sequence (P08183 whole entry): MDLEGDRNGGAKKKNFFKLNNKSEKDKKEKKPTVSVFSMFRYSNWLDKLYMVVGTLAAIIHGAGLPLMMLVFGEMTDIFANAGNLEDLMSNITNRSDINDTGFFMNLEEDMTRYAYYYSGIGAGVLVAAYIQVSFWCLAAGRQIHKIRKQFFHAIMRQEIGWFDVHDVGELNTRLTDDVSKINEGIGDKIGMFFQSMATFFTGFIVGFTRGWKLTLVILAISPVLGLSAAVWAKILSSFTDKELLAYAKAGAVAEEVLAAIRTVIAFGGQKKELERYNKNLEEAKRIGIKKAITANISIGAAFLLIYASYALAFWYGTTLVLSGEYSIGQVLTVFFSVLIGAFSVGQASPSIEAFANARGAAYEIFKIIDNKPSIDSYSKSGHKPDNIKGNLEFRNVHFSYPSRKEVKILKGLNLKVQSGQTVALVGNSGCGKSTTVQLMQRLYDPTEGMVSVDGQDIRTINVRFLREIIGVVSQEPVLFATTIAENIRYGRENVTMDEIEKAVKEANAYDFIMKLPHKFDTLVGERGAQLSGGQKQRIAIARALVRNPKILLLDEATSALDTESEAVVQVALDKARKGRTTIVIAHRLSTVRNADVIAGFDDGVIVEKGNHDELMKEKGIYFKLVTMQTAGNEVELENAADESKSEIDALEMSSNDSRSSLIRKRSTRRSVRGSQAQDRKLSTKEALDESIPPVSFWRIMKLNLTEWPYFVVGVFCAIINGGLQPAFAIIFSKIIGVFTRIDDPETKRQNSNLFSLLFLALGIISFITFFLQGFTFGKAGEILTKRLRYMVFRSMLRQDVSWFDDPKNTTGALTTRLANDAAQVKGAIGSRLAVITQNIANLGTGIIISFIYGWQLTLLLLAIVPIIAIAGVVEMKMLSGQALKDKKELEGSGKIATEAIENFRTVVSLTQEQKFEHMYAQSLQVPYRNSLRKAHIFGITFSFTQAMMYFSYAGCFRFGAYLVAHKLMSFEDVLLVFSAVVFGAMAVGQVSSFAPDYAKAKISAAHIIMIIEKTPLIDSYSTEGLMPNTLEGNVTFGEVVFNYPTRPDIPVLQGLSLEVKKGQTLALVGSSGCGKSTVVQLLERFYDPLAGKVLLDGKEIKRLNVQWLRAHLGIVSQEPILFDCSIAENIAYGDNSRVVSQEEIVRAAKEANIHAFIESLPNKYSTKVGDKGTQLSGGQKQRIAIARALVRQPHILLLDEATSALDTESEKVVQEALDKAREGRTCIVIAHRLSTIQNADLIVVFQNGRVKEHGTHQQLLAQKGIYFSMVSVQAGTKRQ

Row | Papp (A-B) [4] | Papp (B-A) [4] | Papp A→B at 2 h [4] [×10⁻⁶ cm/s] | Papp B→A at 2 h [4] [×10⁻⁶ cm/s] | Compound | IC50 [1, 6] [nM] | IC50 [1, 7] [nM] | IC50 [2] [nM] | P-gp substrate (known / earlier data and literature) [5] | further results
1 |  |  |  |  | O=[N+]([O-])c1ccc(C(OP(=O)(N2CC2)N2CC2)C(F)(F)F)cc1 (stereo not drawn) [Control 2, reference compound] | 15600 | 7080 | 659 |  | 
2 |  |  |  |  | O=[N+]([O-])c1ccc([C@@H](OP(=O)(N2CC2)N2CC2)C(F)(F)F)c2ccccc12 [R-configuration of compound 01] |  |  |  |  | Animal death after the first 5 consecutive days ([3]; 10, 20 and 40 mg/kg groups, first cycle): no animal death; Animals died ([3]; 10/80 mg/kg group (1st cycle 10 mg/kg, 2nd cycle 80 mg/kg)): 1 of the 6; Animals died ([3]; 20/60 mg/ml group): 3 of the 6; Animals died ([3]; 40/40 mg/kg group): 1 of the 6; Maximum tolerated dose / MTD result ([3]; ICR mice, intravenous injection, once a day for 5 consecutive days): 20 to 40 mg/kg; Effect on animal body weight ([3]; after intravenous injection in mice): increased slowly; Gross necropsy of the surviving animals ([3]; after the recovery period): on obvious gross pathological changes; MTD at 5 days ([3]; ICR mice, intravenous injection, first cycle, read-out: Maximum tolerated dose): > 40 mg/kg; MTD at 5 days ([3]; ICR mice, intravenous injection, once a day for 5 consecutive days, read-out: Maximum tolerated dose / MTD result): 20 to 40 mg/kg; MTD at 5 days ([3]; ICR mice, intravenous injection, second cycle, read-out: Maximum tolerated dose): < 40 mg/kg; Average food intake vs normal mice ([3]; each administration group): no significant difference; Clinical symptoms after administration ([3]; first cycle, 10/80 mg/kg group): in good condition; Clinical symptoms after administration ([3]; first cycle, 20/60 mg/kg group): unsteady gait; Clinical symptoms after administration ([3]; first cycle, 40/40 mg/kg): intermittent gait unsteady, accelerated breathing, and increased spontaneous activity; Clinical symptoms after administration ([3]; second cycle, 10/80 mg/kg): abnormal gait, decreased muscle tension, decreased spontaneous activity, irregular breathing, unsteady gait, accelerated breathing, erect hair, spasm, deepened breathing, prone, and arched back; Clinical symptoms after administration ([3]; second cycle, 20/60 mg/kg): intermittent deepened breathing, decreased spontaneous activity, unsteady gait, irregular breathing, increased spontaneous activity, accelerated breathing, unsteady gait, and prone; Clinical symptoms after administration ([3]; second cycle, 40/40 mg/kg): intermittent unsteady gait, deepened breathing, accelerated breathing, increased spontaneous activity, and abnormal gait
3 | 28.47 10^−6, cm/s | 14.14 10^−6, cm/s | 14 | 28.2 | COc1cc2nc(N3CCN(C(=O)c4ccco4)CC3)nc(N)c2cc1OC [Prazosin, reference compound] |  |  |  | known P-gp substrates | 
4 |  |  |  |  | CC(OP(=O)(N1CC1)N1CC1)c1ccc([N+](=O)[O-])c2ccccc12 (stereo not drawn) [Compound 26] | 37.6 | < 9.8 | 92 |  | 
5 |  |  |  |  | O=[N+]([O-])c1c(COP(=O)(N2CC2)N2CC2)ccc2ccccc12 [Compound 03] | 10000 | 634 | 806 |  | 
6 | 21.94 10^−6, cm/s | 18.69 10^−6, cm/s | 2.24 | 24.1 | Cc1ccc(NC(=O)c2ccc(CN3CCN(C)CC3)cc2)cc1Nc1nccc(-c2cccnc2)n1 [Imatinib, reference compound] |  |  |  | known P-gp substrates | 
